Measurements reported in patent publication US20160202234A1, “METHOD FOR EVALUATING, VIA BIODOSIMETRY, THE I[…] RECEIVED BY A PERSON SUBJECTED TO IONIZING RADIATION” (ACUBENS, priority 2013, published 2016).

Test system: two different cell lines, respectively sensitive S and resistant R
Experiment: ratio of apoptotic cells as a function of NCS concentration, compared with irradiation dose
Assay type: cell-based
Details: concentration of 1 nM of neocarzinostatin
Method: FIG. 27 is a graph showing the change in the amount of apoptotic cells in a mixture as a function of the quantity of NCS in this mixture,
FIG. 28 is a graph showing the change in the number of apoptotic cells as a function of the irradiation dose received by an individual,
The substance used is for example neocarzinostatin (NCS). […] These graphs made it possible to determine in particular that a concentration of 1 nM of neocarzinostatin is equivalent to, that is to say produces the same effect as, an irradiation dose of 1.2 Gy. Several hair samplings are carried out on the same region of an individual, along with a plurality of blood samplings. Two of the samples are subjected to the action of NCS at a known dose, for example equivalent to 1 Gy, in reaction wells in a plate. Each sample can be treated and analysed, as described previously. One of the two samples is analysed immediately at the same time as a sample that has not received treatment, and the second is analysed after a given period Δt, for example 1 hour.

neocarzinostatin
irradiation dose equivalent to (produces the same effect as) the neocarzinostatin concentration: 1.2 Gy
